# Test results as given in EP4477653A1 (Perha Pharmaceuticals, priority 2023, dated 2024).
# Biological target: T1, human recombinant A3AR (expressed in HEK-293 cells) (Homo sapiens, UniProt P0DMS8)
# T1 construct: host or cells: HEK-293 cells
# T1 sequence (P0DMS8 1-318): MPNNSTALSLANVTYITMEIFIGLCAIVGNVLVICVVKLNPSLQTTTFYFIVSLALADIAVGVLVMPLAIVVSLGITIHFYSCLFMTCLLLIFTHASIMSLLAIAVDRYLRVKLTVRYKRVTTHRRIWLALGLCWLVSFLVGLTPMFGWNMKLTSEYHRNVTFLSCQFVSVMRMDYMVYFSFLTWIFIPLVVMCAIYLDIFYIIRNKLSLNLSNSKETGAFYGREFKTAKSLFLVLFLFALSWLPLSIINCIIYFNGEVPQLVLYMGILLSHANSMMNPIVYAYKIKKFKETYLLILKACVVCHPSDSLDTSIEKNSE
# Assay: Adenosine receptors antagonism assay (Eurofins), [125I]-AB-MECA radioligand competition
# Type: binding
# Conditions: [125I]-AB-MECA 0.15 nM, r.t., 120 min; IC50 from dose-response curves; read-out: Potency Class A3AR
row,IC50 [nM],SMILES
1,100 to 1000,"CCC(CC)Nc1cc(N2Cc3ccccc3C2)c2nnc(C(C)C)n2n1 [compound 79, N-(1-ethylpropyl)-8-isoindolin-2-yl-3-isopropyl-[1,2,4]triazolo[4,3-b]pyridazin-6-amine]"
2,1 to 10,"CCC(CC)Nc1cc(N2CCc3ccccc3C2)c2nnc(C(C)C)n2n1 [compound 80, 8-(3,4-dihydro-1H-isoquinolin-2-yl)-N-(1-ethylpropyl)-3-isopropyl-[1,2,4]triazolo[4,3-b]pyridazin-6-amine]"
3,1 to 10,"CCC(CC)Nc1cc(NCCc2ccccc2)c2nnc(C(C)C)n2n1 [compound 82, N6-(1-ethylpropyl)-3-isopropyl-N8-(2-phenylethyl)-[1,2,4]triazolo[4,3-b]pyridazine-6,8-diamine]"
4,< 1,"CCC(CC)Nc1cc(NCCc2ccccn2)c2nnc(C(C)C)n2n1 [compound 83, N6-(1-ethylpropyl)-3-isopropyl-N8-[2-(2-pyridyl)ethyl]-[1,2,4]triazolo[4,3-b]pyridazine-6,8-diamine]"
5,1 to 10,"CCC(CC)Nc1cc(NCCc2cccnc2)c2nnc(C(C)C)n2n1 [compound 84, N6-(1-ethylpropyl)-3-isopropyl-N8-[2-(3-pyridyl)ethyl]-[1,2,4]triazolo[4,3-b]pyridazine-6,8-diamine]"
6,1 to 10,"CCC(CC)Nc1cc(NCCc2ccncc2)c2nnc(C(C)C)n2n1 [compound 85, N6-(1-ethylpropyl)-3-isopropyl-N8-[2-(4-pyridyl)ethyl]-[1,2,4]triazolo[4,3-b]pyridazine-6,8-diamine]"
7,< 1,"CCC(CC)Nc1cc(NCCc2ccccn2)c2nnc(C3CC3)n2n1 [compound 86, 3-cyclopropyl-N6-(1-ethylpropyl)-N8-[2-(2-pyridyl)ethyl]-[1,2,4]triazolo[4,3-b]pyridazine-6,8-diamine]"
8,< 1,"CCC(CC)Nc1cc(NCCc2cccnc2)c2nnc(C3CC3)n2n1 [compound 87, 3-cyclopropyl-N6-(1-ethylpropyl)-N8-[2-(3-pyridyl)ethyl]-[1,2,4]triazolo[4,3-b]pyridazine-6,8-diamine]"
9,1 to 10,"CCC(CC)Nc1cc(NCCc2ccncc2)c2nnc(C3CC3)n2n1 [compound 88, 3-cyclopropyl-N6-(1-ethylpropyl)-N8-[2-(4-pyridyl)ethyl]-[1,2,4]triazolo[4,3-b]pyridazine-6,8-diamine]"
10,10 to 100,"CCC(CC)Nc1cc(NCCCc2ccccn2)c2nnc(C(C)C)n2n1 [compound 89, N6-(1-ethylpropyl)-3-isopropyl-N8-[3-(2-pyridyl)propyl]-[1,2,4]triazolo[4,3-b]pyridazine-6,8-diamine]"
11,1 to 10,"CCC(CC)Nc1cc(NCCCc2cccnc2)c2nnc(C(C)C)n2n1 [compound 90, N6-(1-ethylpropyl)-3-isopropyl-N8-[3-(3-pyridyl)propyl]-[1,2,4]triazolo[4,3-b]pyridazine-6,8-diamine]"
12,1 to 10,"CCC(CC)Nc1cc(NCCCc2ccncc2)c2nnc(C(C)C)n2n1 [compound 91, N6-(1-ethylpropyl)-3-isopropyl-N8-[3-(4-pyridyl)propyl]-[1,2,4]triazolo[4,3-b]pyridazine-6,8-diamine]"
13,10 to 100,"CCC(CC)Nc1cc(NCc2ncccn2)c2nnc(C(C)C)n2n1 [compound 92, N6-(1-ethylpropyl)-3-isopropyl-N8-(pyrimidin-2-ylmethyl)-[1,2,4]triazolo[4,3-b]pyridazine-6,8-diamine]"
14,1 to 10,"CCC(CC)Nc1cc(NCc2cncnc2)c2nnc(C(C)C)n2n1 [compound 93, N6-(1-ethylpropyl)-3-isopropyl-N8-(pyrimidin-5-ylmethyl)-[1,2,4]triazolo[4,3-b]pyridazine-6,8-diamine]"
15,1 to 10,"CCC(CC)Nc1cc(NCc2cnccn2)c2nnc(C(C)C)n2n1 [compound 94, N6-(1-ethylpropyl)-3-isopropyl-N8-(pyrazin-2-ylmethyl)-[1,2,4]triazolo[4,3-b]pyridazine-6,8-diamine]"
16,1 to 10,"CCC(CC)Nc1cc(NCc2cccnn2)c2nnc(C(C)C)n2n1 [compound 95, N6-(1-ethylpropyl)-3-isopropyl-N8-(pyridazin-3-ylmethyl)-[1,2,4]triazolo[4,3-b]pyridazine-6,8-diamine]"
17,10 to 100,"CCC(CC)Nc1cc(NC(=O)c2ccccc2)c2nnc(C(C)C)n2n1 [compound 96, N-[6-(1-ethylpropylamino)-3-isopropyl-[1,2,4]triazolo[4,3-b]pyridazin-8-yl]benzamide]"
18,10 to 100,"CCC(CC)Nc1cc(NC(=O)c2ccccn2)c2nnc(C(C)C)n2n1 [compound 97, N-[6-(1-ethylpropylamino)-3-isopropyl-[1,2,4]triazolo[4,3-b]pyridazin-8-yl]pyridine-2-carboxamide]"

row,IC50 [nM],SMILES
1,< 1,"CCC(CC)Nc1cc(NC(=O)Cc2ccccc2)c2nnc(C(C)C)n2n1 [compound 98, N-[6-(1-ethylpropylamino)-3-isopropyl-[1,2,4]triazolo[4,3-b]pyridazin-8-yl]-2-phenyl-acetamide]"
2,1 to 10,"CCOC(=O)Nc1cc(NC(CC)CC)nn2c(C(C)C)nnc12 [compound 99, ethyl N-[6-(1-ethylpropylamino)-3-isopropyl-[1.2.4]triazolo[4,3-b]pyridazin-8-yl]carbamate]"
3,10 to 100,"CC[C@@H](CO)Nc1cc(NCc2ccc(Br)cc2)c2nnc(C(C)C)n2n1 [compound 101, (2S)-2-[[8-[(4-bromophenyl)methylamino]-3-isopropyl-[1,2,4]triazolo[4,3-b]pyridazin-6-yl]amino]butan-1-o1]"
4,10 to 100,"CC[C@@H](CO)Nc1cc(NCc2ccc(-c3ccccc3)cc2)c2nnc(C(C)C)n2n1 [compound 102, (2S)-2-[[3-isopropyl-8-[(4-phenylphenyl)methylamino]-[1,2,4]triazolo[4,3-b]pyridazin-6-yl]amino]butan-1-ol]"
5,10 to 100,"CC[C@@H](CO)Nc1cc(NCc2ccc(-c3ccncc3)cc2)c2nnc(C(C)C)n2n1 [compound 103, (2S)-2-[[3-isopropyl-8-[[4-(4-pyridyl)phenyl]methylamino]-[1,2,4]triazolo[4,3-b]pyridazin-6-yl]amino]butan-1-ol]"
6,10 to 100,"CC[C@@H](CO)Nc1cc(NCc2ccc(-c3cccnc3)cc2)c2nnc(C(C)C)n2n1 [compound 104, (2S)-2-[[3-isopropyl-8-[[4-(3-pyridyl)phenyl]methylamino]-[1,2,4]triazolo[4,3-b]pyridazin-6-yl]amino]butan-1-ol]"
7,10 to 100,"CC[C@@H](CO)Nc1cc(NCc2ccc(-c3ccccn3)cc2)c2nnc(C(C)C)n2n1 [compound 105, (2S)-2-[[3-isopropyl-8-[[4-(2-pyridyl)phenyl]methylamino]-[1,2,4]triazolo[4,3-b]pyridazin-6-yl]amino]butan-1-ol]"
8,100 to 1000,"CC(C)c1nnc2c(NCc3ccc(Br)cc3)cc(N[C@H](CO)[C@@H](C)O)nn12 [compound 106, (2R,3R)-2-[[8-[(4-bromophenyl)methylamino]-3-isopropyl-[1,2,4]triazolo[4,3-b]pyridazin-6-yl]amino]butane-1,3-diol]"
9,10 to 100,"CC(C)c1nnc2c(NCc3ccc(-c4ccccn4)cc3)cc(N[C@H](CO)[C@@H](C)O)nn12 [compound 107, (2R,3R)-2-[[3-isopropyl-8-[[4-(2-pyridyl)phenyl]methylamino]-[1,2,4]triazolo[4,3-b]pyridazin-6-yl]amino]butane-1,3-diol]"
10,100 to 1000,"CC(C)c1nnc2c(NCc3ccc(-c4ccncc4)cc3)cc(N[C@H](CO)[C@@H](C)O)nn12 [compound 108, (2R,3R)-2-[[3-isopropyl-8-[[4-(4-pyridyl)phenyl]methylamino]-[1,2,4]triazolo[4,3-b]pyridazin-6-yl]amino]butane-1,3-diol]"
11,100 to 1000,"COCCCNc1cc(NCCCOC)c2nnc(-c3ccccc3)n2n1 [compound 109, N6,N8-bis(3-methoxypropyl)-3-phenyl-[1,2,4]triazolo[4,3-b]pyridazine-6,8-diamine]"
12,10 to 100,"COCCCNc1cc(NCCCOC)c2nnc(C3CC3)n2n1 [compound 110, 3-cyclopropyl-N6,N8-bis(3-methoxypropyl)-[1,2,4]triazolo[4,3-b]pyridazine-6,8-diamine]"
13,10 to 100,"COCCCNc1cc(NCCCOC)c2nnc(C(F)(F)F)n2n1 [compound 111, N6,N8-bis(3-methoxypropyl)-3-(trifluoromethyl)-[1,2,4]triazolo[4,3-b]pyridazine-6,8-diamine]"
14,100 to 1000,"COCCNc1cc(NCCOC)c2nnc(C(C)C)n2n1 [compound 112, 3-isopropyl-N6,N8-bis(2-methoxyethyl)-[1,2,4]triazolo[4,3-b]pyridazine-6,8-diamine]"
15,100 to 1000,"CC[C@H](CO)Nc1cc(N[C@H](CC)CO)c2nnc(C(C)C)n2n1 [compound 113, (2R)-2-[[6-[[(1R)-1-(hydroxymethyl)propyl]amino]-3-isopropyl-[1,2,4]triazolo[4,3-b]pyridazin-8-yl]amino]butan-1-ol]"
16,1 to 10,"CCC(CC)Nc1cc(NC(CC)CC)c2nnc(C(C)C)n2n1 [compound 114, N6,N8-bis(1-ethylpropyl)-3-isopropyl-[1,2,4]triazolo[4,3-b]pyridazine-6,8-diamine]"
17,100 to 1000,"CC[C@H](CO)Nc1nn2c(C(C)C)nnc2c(NCc2ccccc2)c1C [compound 115, (2R)-2-[[8-(benzylamino)-3-isopropyl-7-methyl-[1,2,4]triazolo[4,3-b]pyridazin-6-yl]amino]butan-1-ol]"
18,100 to 1000,"CNc1cc(NCc2ccc(Br)cc2)c2nnc(C(C)C)n2n1 [compound 116, N8-[(4-bromophenyl)methyl]-3-isopropyl-N6-methyl-[1,2,4]triazolo[4,3-b]pyridazine-6,8-diamine]"
